According to patent US20100285959A1, “HERBICIDAL MIXTURES” (priority 2006, published 2010):

Tests used:
[1] = system: field pennycress (THLAR); assay: Test 4 field trial, postemergence; assay type: in vivo, Thlaspi arvense; set-up: scale not given here
Procedure: A field trial was conducted to evaluate the effects of mixtures of Compound 2 with commercial herbicides on spring wheat (TRZAS, Triticum aestivum L.) and several weed species. Wheat seeds (cv. ‘AC Intrepid’) were planted in late spring season, 3.8 cm deep in a loam soil having 2.7% organic matter and a pH of 7. Plots were 6 m long by 2.5 m wide. The field was managed using no-till practices. The plots were arranged in a randomized complete block design with each treatment being replicated four times. Treatments were applied postemergence 25 days after planting using a backpack sprayer delivering a spray volume of 55 L/ha using a pressure of 276 kPa. […] Compound 2 and clodinafop treatments, alone and in combination, also included a surfactant. Weed species present in the experimental plots in sufficient quantity to be evaluated included wild oat (AVEFA, Avena fatua L.), common lambsquarters (CHEAL, Chenopodium album L.), kochia (KCHSC, Kochia scoparia (L.) Schrad.), wild buckwheat (POLCO, Polygonum convolvulus L.), Russian thistle (SASKR, Salsola kali L. ssp. ruthenica (Iljin) Soo), and field pennycress (THLAR, Thlaspi arvense L.). […] Common lambsquarters was evaluated only at 14 days after application. […] Results are the means of the four replicates.

[2] = system: winter barley (HORVW); assay: Test 24 growth chamber, postemergence; assay type: in vivo, Hordeum vulgare; conditions: 17 DAA
Procedure: (§1) Plants were treated postemergence at the 2-4 leaf growth stage, and each treatment was replicated three times. […] Plants were watered as needed. […] Results for barley and wheat are the means across varieties of the three replicates, and results for the weeds are the means of the three replicates.

[3] = system: redroot pigweed (AMARE); assay: Test 24 growth chamber, postemergence; assay type: in vivo, Amaranthus retroflexus; conditions: 17 DAA
Procedure: as §1

[4] = system: corn (ZEAMD); assay: Test 25 field trial, postemergence, growth as percent of control; assay type: in vivo, Zea mays ssp. indentata; conditions: hybrid Pioneer 31G96 RR, Zea mays ssp. indentata (corn), in vivo
Text: (§2) Corn seeds (hybrid ‘Pioneer 31G96 RR’) were planted in mid spring season, 3.8 cm deep in a clay loam soil having 2% organic matter and a pH of 6.6. Plots were 6.1 m long by 3.0 m wide with rows spaced 76 cm apart. Seeds were spaced 15 cm apart within the rows. The field was managed using conventional tillage practices. […] Giant ragweed and Pennsylvania smartweed could only be evaluated 14 days after application. […] Results are the means of the three replicates. This growth inhibition data was converted to results in the form of “plant growth as a percent of control plant growth” using the calculation “100 minus growth inhibition”.
(§3) When this form of Colby's Equation is used, if the observed effects on weeds are less than the expected values, the mixture is synergistic.

[5] = system: velvetleaf (ABUTH); assay: as above; assay type: in vivo, Abutilon theophrasti
Text: as §2, §3

[6] = system: velvetleaf (ABUTH); assay: Test 26 field trial, postemergence; assay type: in vivo, Abutilon theophrasti
Text: (§4) Corn seeds (hybrid ‘Pioneer 31G96’) were planted in mid spring season, 3.8 cm deep in a silt loam soil having 2% organic matter and a pH of 6.6. Plots were 6.1 m long by 3.0 m wide with rows spaced 76 cm apart. Seeds were spaced 15 cm apart within the rows. The field was managed using conventional tillage practices. […] All treatments also included a surfactant. […] Some of the weed species could not be evaluated at every timing. […] Results are the means of the three replicates.

[7] = system: Pennsylvania smartweed (POLPY); assay: Test 26 field trial, postemergence; assay type: in vivo, Polygonum pensylvanicum
Text: as §4

[8] = system: corn (ZEAMD); assay: Test 31 field trial, corn hybrids at V4 growth stage; assay type: in vivo, Zea mays ssp. indentata; conditions: postemergence, 14 DAA; for 34A15 Obs: corn hybrid 34A15; for 34N43 Obs: corn hybrid 34N43; for 35D28 Obs: corn hybrid 35D28; for 3730 Obs: corn hybrid 3730
Text: Corn seeds of hybrids Pioneer ‘34A15’, ‘34N43’, ‘35D28’, and ‘3730’ were planted in mid-spring season, approximately 3.8 cm deep in a sandy loam soil having 3.8% organic matter and a pH of 6.5. Plots were 9.1 m long by 3.0 m wide with rows spaced 76 cm apart. Seeds were spaced approximately 18 cm apart within the rows. The field was managed using conventional tillage practices. Plots were arranged with hybrid as the main block and herbicide treatments randomized within each block. Treatments were applied to corn in the V4 growth stage using a backpack sprayer delivering a spray volume of 131 L/ha with a pressure of 221 kPa. Treatments consisted of Compound 2 alone and in combination with a premix formulation of foramsulfuron and isoxadifen-ethyl, dissolved or suspended in water containing the spray adjuvants ammonium sulfate, applied at 1 kg/Ha, and methylated seed oil, applied at 1% vol/vol. Effects on the treated corn plants and untreated controls were recorded 14 days after application.

COC(=O)c1nc(C2CC2)nc(N)c1Cl [Compound 2, methyl 6-amino-5-chloro-2-cyclopropyl-4-pyrimidinecarboxylate]
THLAR Obs ([1]; 14 DAA, Cpd 2 30 g a.i./ha alone or with fenoxaprop 90): 0 | THLAR Obs ([1]; 14 DAA, Cpd 2 60 g a.i./ha alone or with clodinafop 56 or fenoxaprop 90): 0 | THLAR Obs ([1]; 35 DAA, Cpd 2 30 g a.i./ha alone or with clodinafop 56 or fenoxaprop 90): 0 | THLAR Obs ([1]; 35 DAA, Cpd 2 60 g a.i./ha alone or with fenoxaprop 90): 8 | HORVW Obs (scale 0 to 100) ([2]; Cpd 2 4 g a.i./ha): 19 | HORVW Obs (scale 0 to 100) ([2]; Cpd 2 8 g a.i./ha): 28 | HORVW Obs (scale 0 to 100) ([2]; Cpd 2 16 g a.i./ha): 37 | AMARE Obs (scale 0 to 100) ([3]; Cpd 2 4 g a.i./ha): 63 | AMARE Obs (scale 0 to 100) ([3]; Cpd 2 8 g a.i./ha): 67 | AMARE Obs (scale 0 to 100) ([3]; Cpd 2 16 g a.i./ha): 75 | ZEAMD Obs (percent of control) ([4]; 14 days after application): 100% | ZEAMD Obs (percent of control) ([4]; 56 days after application): 100% | ABUTH Obs (percent of control) ([5]; Cpd 2 15 g a.i./ha, 14 DAA): 70% | ABUTH Obs (percent of control) ([5]; Cpd 2 15 g a.i./ha, 28 DAA): 72% | ABUTH Obs (percent of control) ([5]; Cpd 2 15 g a.i./ha, 56 DAA): 62% | ABUTH Obs (percent of control) ([5]; Cpd 2 30 g a.i./ha, 14 DAA): 45% | ABUTH Obs (percent of control) ([5]; Cpd 2 30 g a.i./ha, 28 DAA): 53% | ABUTH Obs (percent of control) ([5]; Cpd 2 30 g a.i./ha, 56 DAA): 28% | ABUTH Obs (percent of control) ([5]; Cpd 2 45 g a.i./ha, 14 DAA): 37% | ABUTH Obs (percent of control) ([5]; Cpd 2 45 g a.i./ha, 28 DAA): 40% | ABUTH Obs (percent of control) ([5]; Cpd 2 45 g a.i./ha, 56 DAA): 20% | ABUTH Obs ([6]; 14 DAA, 30 g a.i./ha): 86 | ABUTH Obs ([6]; 14 DAA, 45 g a.i./ha): 64 | ABUTH Obs ([6]; 14 DAA, 60 g a.i./ha): 95 | ABUTH Obs ([6]; 28 DAA, 30 g a.i./ha): 80 | ABUTH Obs ([6]; 28 DAA, 45 g a.i./ha): 59 | ABUTH Obs ([6]; 28 DAA, 60 g a.i./ha): 90 | ABUTH Obs ([6]; 56 DAA, 30 g a.i./ha): 40 | ABUTH Obs ([6]; 56 DAA, 45 g a.i./ha): 57 | ABUTH Obs ([6]; 56 DAA, 60 g a.i./ha): 63 | POLPY Obs ([7]; 14 DAA, 60 g a.i./ha): 100 | POLPY Obs ([7]; 28 DAA, 30 g a.i./ha): 20 | POLPY Obs ([7]; 28 DAA, 45 g a.i./ha): 62 | POLPY Obs ([7]; 28 DAA, 60 g a.i./ha): 75 | 34A15 Obs ([8]; Cpd 2 30 g a.i./ha): 25 | 34A15 Obs ([8]; Cpd 2 60 g a.i./ha): 30 | 34N43 Obs ([8]; Cpd 2 30 g a.i./ha): 15% | 34N43 Obs ([8]; Cpd 2 60 g a.i./ha): 20% | 35D28 Obs ([8]; Cpd 2 30 g a.i./ha): 60 | 35D28 Obs ([8]; Cpd 2 60 g a.i./ha): 65 | 3730 Obs ([8]; Cpd 2 30 g a.i./ha): 60 | 3730 Obs ([8]; Cpd 2 60 g a.i./ha): 75
